# From PubChem BioAssay AID2060510 (Molecular Pharmacology Branch, DTP, NCI, 2025)
# Several values for one entry are separate records, joined by “and”; a condition that tells them apart may be missing. Identical values can stand only once.
# Test system: 439559-082-T-J2-PDC spheroids viability
# Assay: Anticancer human tumor 439559-082-T-J2-PDC patient-derived colon adenocarcinoma cell line growth inhibition [GQUAD]
# Details: for viability, T/C: stronger effect = lower value
# Excerpt: DNA G-quadruplex Stabilizer Agents in Combinations in Complex Spheroids
# A high-throughput screen of multi-cell type tumor spheroids was designed to identify active combinations of DNA G-quadruplex stabilizer agents and targeted small molecules. Complex spheroids include a stromal component modeled by human endothelial cells (HUVEC) and fibroblasts modeled by human mesenchymal stem cells (MSCs). The concentration ranges selected for each drug and investigational agent were based upon clinically achievable concentrations if the clinical Cmax of the agent was known.
# Compounds. The drugs and investigational agents: pidnarulex (CX-5461; NSC782164), APTO-253 (NSC789042), BRACO-19 (NSC847499), peposertib (NSC802822), ceralasertib (NSC780249), elimusertib (NSC800525), camonsertib (NSC841442), AZD-1390 (NSC803789), olaparib (NSC753686), talazoparib (NSC767125), ART-558 (NSC835418), sotorasib (NSC818433), MRTX-1133 (NSC836407), SN-38 (NSC673596), topotecan (NSC609699), etoposide (NSC141540), doxorubicin (NSC123127), gemcitabine (NSC613327), 5-fluorouracil (NSC19893), paclitaxel (NSC125973), vemurafenib (NSC761431), panobinostat (NSC761190), R-306465 (JNJ-16241199; NSC773264), adavosertib (NSC754352), TP-3654 (NSC805149), carboplatin (NSC241240), KSQ-4279 (NSC840948), and staurosporine (NSC755774) were obtained from the National Cancer Institute (NCI) Developmental Therapeutics Program Chemical Repository (34). The FDA-approved anticancer drug set is available from the NCI Developmental Therapeutics Program. […] The stock solutions were prepared in dimethyl sulfoxide (DMSO, Sigma-Aldrich, St. Louis, MO, cat. D2650) at 800-fold the tested concentration and stored at -70 degrees C prior to their use. All drugs and investigational agents were tested over a range starting from a high concentration at or near the clinical Cmax and decreasing in half-log increments. If the clinical Cmax for an agent had not been determined, the highest concentration tested was 10 microM.
# 2.3 Cell Culture. All cells were maintained in an incubator at 37 degrees C and 5% CO2 with 95% humidity. The PDC lines were cultured according to standard operating procedures established by the NCI PDMR. All PDCs were thawed and cultured in Matrigel-coated flasks prepared with a working solution of 1X Ham's F-12 nutrient mix, without supplementation (Invitrogen, cat. 11765054), 100 U/mL penicillin-streptomycin (Invitrogen, cat. 15140122), and 2.5% Matrigel (Corning Inc., cat. 354248) for the first three passages. The 857933-349-R-J2-PDC line was cultured in 6C/Colon 1B media, which includes advanced DMEM/F-12 (Thermo Fisher Scientific, cat. 12634028), 10 mM HEPES (Thermo Fisher Scientific, cat. 15630080), 1X GlutaMAX supplement (Thermo Fisher Scientific, cat. 35050061), 0.1 mg/mL primocin (InvivoGen, cat. ant-pm-2), 10% defined fetal bovine serum, heat inactivated (HyClone Laboratories Inc., cat. SH30070.03HI), 50% L-WRN conditioned media (ATCC, cat. CRL-3276), 1.25 mM N-Acetyl-L-cysteine (Sigma-Aldrich, cat. A9165), 10 mM nicotinamide (Sigma-Aldrich, cat. N0636), 1X B-27 supplement (Thermo Fisher Scientific, cat. 17504044), 1X N-2 supplement (Thermo Fisher Scientific, cat. 17502048), 10 microM Y-27632 dihydrochloride (Tocris Bioscience, cat. 1254), and 50 ng/mL human EGF recombinant protein (Thermo Fisher Scientific, cat. PHG0311). The 485176-168-R4-J1-PDC line was cultured in Panc media, which includes all 6C/Colon 1B media components plus 100 ng/mL human FGF-10 (Thermo Fisher Scientific, cat. 100-26), 500 nM SB-431542 (Selleckchem, cat. S1067), and gastrin (Tocris, cat. 3006).
# […]
# [1] = curve of first compound, second compound 0.0316 µM
# [2] = curve of first compound, second compound 0.1 µM
# [3] = curve of first compound, second compound 0.316 µM
# [4] = curve of first compound, second compound 1 µM
# [5] = curve of first compound, second compound 3.16 µM
# [6] = curve of first compound, second compound 10 µM
# [7] = second compound 0.0316 µM, first compound 0.0316 µM
# [8] = second compound 0.0316 µM, first compound 0.1 µM
# [9] = second compound 0.0316 µM, first compound 0.316 µM
# [10] = second compound 0.0316 µM, first compound 1 µM
# [11] = second compound 0.0316 µM, first compound 3.16 µM
# [12] = second compound 0.0316 µM, first compound 10 µM
# [13] = second compound 0.1 µM, first compound 0.0316 µM
# [14] = second compound 0.1 µM, first compound 0.1 µM
# [15] = second compound 0.1 µM, first compound 0.316 µM
# [16] = second compound 0.1 µM, first compound 1 µM
# [17] = second compound 0.1 µM, first compound 3.16 µM
# [18] = second compound 0.1 µM, first compound 10 µM
# [19] = second compound 0.316 µM, first compound 0.0316 µM
# [20] = second compound 0.316 µM, first compound 0.1 µM
# [21] = second compound 0.316 µM, first compound 0.316 µM
# [22] = second compound 0.316 µM, first compound 1 µM
# [23] = second compound 0.316 µM, first compound 3.16 µM
# [24] = second compound 0.316 µM, first compound 10 µM
# [25] = second compound 1 µM, first compound 0.0316 µM
# [26] = second compound 1 µM, first compound 0.1 µM
# [27] = second compound 1 µM, first compound 0.316 µM
# [28] = second compound 1 µM, first compound 1 µM
# [29] = second compound 1 µM, first compound 3.16 µM
# [30] = second compound 1 µM, first compound 10 µM
# [31] = second compound 3.16 µM, first compound 0.0316 µM
# [32] = second compound 3.16 µM, first compound 0.1 µM
# [33] = second compound 3.16 µM, first compound 0.316 µM
# [34] = second compound 3.16 µM, first compound 1 µM
# [35] = second compound 3.16 µM, first compound 3.16 µM
# [36] = second compound 3.16 µM, first compound 10 µM
# [37] = second compound 10 µM, first compound 0.0316 µM
# [38] = second compound 10 µM, first compound 0.1 µM
# [39] = second compound 10 µM, first compound 0.316 µM
# [40] = second compound 10 µM, first compound 1 µM
# [41] = second compound 10 µM, first compound 3.16 µM
# [42] = second compound 10 µM, first compound 10 µM
# 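Further: spheroids exposed to the agents for 7 days before readout.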
# 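Wherever viability, T/C is given: percent of luminescence signal in DMSO vehicle wells taken as 100% viability.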
compound,measurement,setting,value
COc1ccc([C@@H](O)c2cc(-c3ncnc4cc(N5CCOCC5)ccc34)c(F)cc2Cl)nn1 + CN(C)c1ccc(Nc2c3ccc(NC(=O)CCN4CCCC4)cc3nc3cc(NC(=O)CCN4CCCC4)ccc23)cc1,IC50,[1],> 10 µM
same,IC50,[2],> 10 µM
same,IC50,[3],> 10 µM
same,IC50,[4],> 10 µM
same,IC50,[5],> 10 µM
same,IC50,[6],> 10 µM
same,"viability, T/C",[7],89.5%
same,"viability, T/C",[8],98.3%
same,"viability, T/C",[9],89.1%
same,"viability, T/C",[10],99.7%
same,"viability, T/C",[11],79.5%
same,"viability, T/C",[12],83.8%
same,"viability, T/C",[13],103%
same,"viability, T/C",[14],101%
same,"viability, T/C",[15],93.8%
same,"viability, T/C",[16],96.1%
same,"viability, T/C",[17],88.6%
same,"viability, T/C",[18],76.5%
same,"viability, T/C",[19],95.7%
same,"viability, T/C",[20],92.8%
same,"viability, T/C",[21],89.6%
same,"viability, T/C",[22],79.8%
same,"viability, T/C",[23],84%
same,"viability, T/C",[24],86.7%
same,"viability, T/C",[25],104%
same,"viability, T/C",[26],89.1%
same,"viability, T/C",[27],95.7%
same,"viability, T/C",[28],91.2%
same,"viability, T/C",[29],86%
same,"viability, T/C",[30],76.4%
same,"viability, T/C",[31],94.9%
same,"viability, T/C",[32],108%
same,"viability, T/C",[33],92.6%
same,"viability, T/C",[34],81.1%
same,"viability, T/C",[35],76%
same,"viability, T/C",[36],79.1%
same,"viability, T/C",[37],92.2%
same,"viability, T/C",[38],77%
same,"viability, T/C",[39],93.7%
same,"viability, T/C",[40],71.9%
same,"viability, T/C",[41],86.4%
same,"viability, T/C",[42],73.4%
CC(C)n1c(=O)n(C)c2cnc3cc(F)c(-c4ccc(OCCCN5CCCCC5)nc4)cc3c21,"viability, T/C",compound 0.0316 µM,110% and 92.9% and 102%
same,"viability, T/C",compound 0.1 µM,103% and 115% and 91.5%
same,"viability, T/C",compound 0.316 µM,117% and 111% and 110%
same,"viability, T/C",compound 1 µM,107% and 114% and 98.3%
same,"viability, T/C",compound 3.16 µM,116% and 117% and 110%
same,"viability, T/C",compound 10 µM,95.4% and 101% and 102%
same,IC50,curve of compound,> 10 µM
Nc1ccn(C2OC(CO)C(O)C2(F)F)c(=O)n1 (centres undefined) + Cc1cnc(CNC(=O)c2c(=O)c3ccc(N4CCCN(C)CC4)nc3n3c2sc2ccccc23)cn1,IC50,[1],0.234 µM
same,IC50,[2],0.213 µM
same,IC50,[3],0.231 µM
same,IC50,[4],0.174 µM
same,IC50,[5],0.171 µM
same,IC50,[6],0.153 µM
same,"viability, T/C",[7],87.8%
same,"viability, T/C",[8],65.9%
same,"viability, T/C",[9],41.4%
same,"viability, T/C",[10],35.3%
same,"viability, T/C",[11],27.3%
same,"viability, T/C",[12],20.8%
same,"viability, T/C",[13],81.4%
same,"viability, T/C",[14],62.3%
same,"viability, T/C",[15],43.4%
same,"viability, T/C",[16],29.8%
same,"viability, T/C",[17],27.8%
same,"viability, T/C",[18],18.4%
same,"viability, T/C",[19],84.2%
same,"viability, T/C",[20],65.4%
same,"viability, T/C",[21],42.9%
same,"viability, T/C",[22],31.9%
same,"viability, T/C",[23],25.4%
same,"viability, T/C",[24],19.2%
same,"viability, T/C",[25],74.3%
same,"viability, T/C",[26],61.7%
same,"viability, T/C",[27],37.4%
same,"viability, T/C",[28],28.8%
same,"viability, T/C",[29],26%
same,"viability, T/C",[30],27.3%
same,"viability, T/C",[31],66.9%
same,"viability, T/C",[32],56.1%
same,"viability, T/C",[33],43.5%
same,"viability, T/C",[34],28.3%
same,"viability, T/C",[35],25.7%
same,"viability, T/C",[36],19.6%
same,"viability, T/C",[37],67.2%
same,"viability, T/C",[38],56.3%
same,"viability, T/C",[39],39.3%
same,"viability, T/C",[40],29.8%
same,"viability, T/C",[41],24.6%
same,"viability, T/C",[42],22.6%
C#Cc1c(F)ccc2cc(O)cc(-c3ncc4c(N5CC6CCC(C5)N6)nc(OCC56CCCN5CC(F)C6)nc4c3F)c12 (centres undefined),"viability, T/C",compound 0.0316 µM,96.1% and 98.3% and 86.1%
same,"viability, T/C",compound 0.1 µM,86.3% and 94.2% and 72.7%
same,"viability, T/C",compound 0.316 µM,76.8% and 90.2% and 62.7%
same,"viability, T/C",compound 1 µM,75.4% and 78.3% and 59.6%
same,"viability, T/C",compound 3.16 µM,60.6% and 9.56% and 49.7%
same,"viability, T/C",compound 10 µM,49% and 15.8% and 45.7%
same,IC50,curve of compound,9.82 µM and 1.64 µM and 3.59 µM
Cc1cccc(N(C)C(=O)C2C(O)CCN2c2nc(C)cc(C(F)(F)F)c2C#N)c1 (centres undefined),"viability, T/C",compound 0.0316 µM,93.8% and 107% and 103%
same,"viability, T/C",compound 0.1 µM,105% and 93.7% and 99.7%
same,"viability, T/C",compound 0.316 µM,106% and 102% and 85.8%
same,"viability, T/C",compound 1 µM,109% and 97.2% and 108%
same,"viability, T/C",compound 3.16 µM,116% and 104% and 109%
same,"viability, T/C",compound 10 µM,88.7% and 92.6% and 98.5%
same,IC50,curve of compound,> 10 µM
COc1cc(C2c3cc4c(cc3C(OC3OC5COC(C)OC5C(O)C3O)C3COC(=O)C23)OCO4)cc(OC)c1O (centres undefined),"viability, T/C",compound 0.0316 µM,96.1% and 96% and 96.2%
same,"viability, T/C",compound 0.1 µM,93% and 81.9% and 90.7%
same,"viability, T/C",compound 0.316 µM,92.8% and 94.6% and 101%
same,"viability, T/C",compound 1 µM,98.3% and 89.7% and 95%
same,"viability, T/C",compound 3.16 µM,90.2% and 80.1% and 81.5%
same,"viability, T/C",compound 10 µM,62.3% and 61% and 68.8%
same,IC50,curve of compound,> 10 µM
CC[C@@]1(O)C(=O)OCc2c1cc1n(c2=O)Cc2cc3c(CN(C)C)c(O)ccc3nc2-1,"viability, T/C",compound 0.000999 µM,95.3% and 92.3% and 106%
same,"viability, T/C",compound 0.00316 µM,105% and 96.2% and 94.6%
same,"viability, T/C",compound 0.00999 µM,96% and 97.9% and 95.6%
same,"viability, T/C",compound 0.0316 µM,84.6% and 98% and 89.7%
same,"viability, T/C",compound 0.0999 µM,88.7% and 87.6% and 101%
same,"viability, T/C",compound 0.316 µM,79% and 81.7% and 75.3%
same,IC50,curve of compound,> 0.316 µM
